In brackets after ≈: the same amount, converted by molar mass.
Legend:
Cytotoxicity assay (MTT) = assay type: cell-based; details: human; HeLa cell line KB3.1; MTT, five days; NA = No activity; a = Proliferation inhibition, no altered or dead cells
Procedure: To evaluate the biological effects of compounds 1–6, various assays were carried out. The antimicrobial activity of the isolated compounds against Bacillus subtilis DSM10, Escherichia coli DSM498, Candida tenuis MUCL29892, and Mucor plumbeus MUCL49355 was determined as described by Kuephadungphan and co-workers. The nematicidal activity against Caenorhabditis elegans was investigated using a microtiter plate assay according to Helaly and co-workers, while the cytotoxicity was tested against murine fibroblast (L929) and human HeLa (KB3.1) cell lines according to Chepkirui and co-workers.
Biological activity screening of compounds 1–6 […]
The isolated compounds were tested for cytotoxic activity using the MTT (3 -(4,5-dimethylthiayol -2-yl)-2,5-diphenyltetrayolium bromide) method in 96 -well microtiter plates following the procedure previously described by Chepkirui et al.7 against th e cervix carcino ma cell line KB3.1 and the established mouse fibroblast cell line L929. The assay was kindly conducted by Wera Collisi, Department of Microbial Drugs, Helmholtz Centre of Infection Research, Germany. The tested cell lines were cultured in EBM -2 (Lonza) sup plemented with 10% fetal bovine serum (Gibco) under 10% CO2 at 37 °C. A 60 µL of serial dilutions from an initial stock (1 mg/mL) of the test compounds in MeOH was added to 120 µL aliquots of a cell suspension (50,000 cells/mL) in 96-well microplates.
After incubation for five days, 20 µL of MTT in phosphate buffered saline (PBS) were added to give a final concentration of 0.5 mg/mL. The plates were further incubated for two hours. The precipitate […]
of formazan crystals was centrifuged and the supernatant was then discarded. Each well was washed with 100 µL of PBS and 100 µL of isopropanol containing 0.4% hydrochloric acid were subsequently added in order to get the residual dissolved. The plates were gently shaken for 20 min before the absorbance at 590 nm was measured using an ELISA microplate reader (Victor). The concentration, at which the growth of cells was inhibited to 50% of the control (IC50), was obtained from the dose - response curves. Methanol was used as negative control while epothilone A and B wer e used as positive controls for L929 and KB3.1 cell lines, respectively. […]
(§1) After incubation at 37 °C under shaking condition, the overnight cultures were adjusted to equal the turbidity of 0.5 McFarland standard using the assay medium. The assay was carried out in 96 -well tissue cultured -treated microplates (TPP®, Germany) for S. aureus and non-treated plates (Falcon®MicroTestTM, USA) for P. aeruginosa , in which 10 μ L of each compound (0.5 mg/m L) in six replicates were mixed together with 140 μ L of bacterial suspension. Methanol and CASO medium with and without 4% glucose were used as negative controls and tetracycline (100 μg/m L) as positive control. Plates were covered with a sterile adhesive porous paper (Kisker Biotech GmbH, Steinfurt, Germany) and incubated at 37 °C for 24 h.
After incubation, ba cterial biofilms were stained with 0.1% crystal violet solution (Sigma -Aldrich) following the protocol of O’Toole .9 Then, the biofilm was subsequently quantified using a microplate reader at 550 nm. […]
aeruginosa PA14 were further evaluated for their bacteriostatic and bactericidal activit ies. The assay was performed in the Bioscreen 100 -well Honeycomb plate according to the protocol described by Yuyama et al. 13 where the MIC values were determined. […]

[1] = system: Pseudomonas aeruginosa PA14; assay: Anti-biofilm activity, microtiter dish biofilm formation assay; assay type: cell-based; details: lowest concentration preventing biofilm formation by at least 50%, 24 h, NA = No activity
Procedure: (§2) The isolated compounds were also tested for their ability to interfere in the biofilm formation of Staphylococcus aureus DSM1104 and Pseudomonas aeruginosa PA14 [51]. The biofilm inhibition assay was performed in 96-well microtiter plates using the microtiter dish biofilm formation assay described by O’Toole, with minor modifications, as outlined in our recent publications. The antibiofilm activity is expressed as MIC values, which is defined as the lowest concentration of substance that prevents biofilm formation of a target microorganism by at least 50%. […]
(§3) Anti-biofilm activity assay
as §1, with “The determination of the ability of isolated compounds to prevent biofilm formation of S. aureus DSM1104 (ATCC25923) and P. aeruginosa PA148 was performed using the microtiter dish biofilm formation assay described by O’Toole9 with minor modification provided in our recent publications 1, 6, 10–14. The biofilm forming strains were enriched overnight in CASO medium with and without 4% glucose for S. aureus and P. aeruginosa , respectively. After” for “After”
(§4) After incubation, ba cterial biofilms were stained with 0.1% crystal violet solution (Sigma -Aldrich) following the protocol of O’Toole .9 Then, the biofilm was subsequently quantified using a microplate reader at 550 nm. 12 In the current study, the antibiofilm activity was expr essed as MIC value which was defined as the lowest concentration of substance that prevents the biofilm formation of a target microorganism by at least 50%. […]

[2] = system: Staphylococcus aureus DSM1104; assay: as above; assay type: cell-based; details: S. aureus DSM1104 (ATCC25923), lowest concentration preventing biofilm formation by at least 50%, 24 h, NA = No activity
Procedure: as §2, §3
as §1, with “The determination of the ability of isolated compounds to prevent biofilm formation of S. aureus DSM1104 (ATCC25923) and P. aeruginosa PA148 was performed using the microtiter dish biofilm formation assay described by O’Toole9 with minor modification provided in our recent publications 1, 6, 10–14. The biofilm forming strains were enriched overnight in CASO medium with and without 4% glucose for S. aureus and P. aeruginosa , respectively. After” for “After”
as §4

B. subtilis = system: B. subtilis; set-up: method as in PMID 22889083; details: reported by Grove and co-workers; cited from earlier work

| SMILES | IC50 (Cytotoxicity assay (MTT)) | Anti-biofilm activity (MIC) PA [1] | Anti-biofilm activity (MIC) SA [2] | Anti-biofilm activity (MIC) SA ([2]; listed as 1) | MIC against B. subtilis (B. subtilis) | Anti-biofilm activity (MIC) SA ([2]; listed as 2) | Anti-biofilm activity (MIC) SA ([2]; listed as pigmentosin B (2)) |
| --- | --- | --- | --- | --- | --- | --- | --- |
| COc1cc(O)c2c(O)c3c(cc2c1-c1c(OC)cc(O)c2c(O)c4c(cc12)CC(C)OC4=O)CC(C)OC3=O (stereo not drawn) [Pigmentosin A (1), pigmentosin A] | 17 µg/mL (≈ 31.1 µM) | nor antibiofilm activity | 1.9 µg/mL | active | 20 µg/mL (≈ 36.6 µM) |  |  |
| COc1cc(O)c2c(O)c3c(cc2c1-c1c(OC)cc(O)c2c(O)c4c(cc12)CC(CC(C)O)OC4=O)CC(C)OC3=O (stereo not drawn) [Pigmentosin B (2), pigmentosin B] |  | nor antibiofilm activity | 15.6 µg/mL |  |  | active | 15.6 µg/mL |

From publication PMC6941404, “Pigmentosins from Gibellula sp. as antibiofilm agents and a new glycosylated asperfuran from Cordyceps javanica” (Beilstein Journal of Organic Chemistry, 2019)
